The values below come from ChEMBL document CHEMBL4376808, “Triphenylphosphonium Analogues of Betulin and Betulinic Acid with Biological Activity: A Comprehensive Review” (J Nat Prod, 2019).

The structures appear in SMILES notation.

In general, IC50 refers to the midpoint of a concentration-inhibition curve.

What all share (assay type): functional, cell-based
One experiment has as its system HCT-116. Put plainly: Cytotoxic activity in human HCT116 cells assessed as reduction in cell viability.
The next experiment has as its system MCF7. Put plainly: Cytotoxic activity in human MCF7 cells assessed as reduction in cell viability.
For another experiment, the system named is A549. Put plainly: Cytotoxic activity in human A549 cells assessed as reduction in cell viability.

As to `C=C(C)[C@@H]1CC[C@]2(C(=O)OCc3cn(-c4cccc(C(=O)O)c4)nn3)CC[C@]3(C)[C@H](CC[C@@H]4[C@@]5(C)CCC(=O)C(C)(C)[C@@H]5CC[C@]43C)[C@@H]12`, in the experiment on HCT-116, the IC50 came to 4 µM.
For `C=C(C)[C@@H]1CC[C@]2(C(=O)O)CC[C@]3(C)[C@H](CC[C@@H]4[C@@]5(C)CC[C@H](OC(C)=O)C(C)(C)[C@@H]5CC[C@]43C)[C@@H]12`, in the experiment with HCT-116, the IC50 turned out to be 9.6 µM.
Consider `C=C(C)[C@@H]1CC[C@]2(C(=O)O)CC[C@]3(C)[C@H](CC[C@@H]4[C@@]5(C)CC/C(=N/Nc6ccc([N+](=O)[O-])cc6[N+](=O)[O-])C(C)(C)[C@@H]5CC[C@]43C)[C@@H]12`, for which the concentration for half-maximal inhibition (IC50) with MCF7 turned out to be 8.2 µM.
Take `C=C(C)[C@@H]1CC[C@]2(C(=O)OCc3cn(-c4ccc5c(c4)OCO5)nn3)CC[C@]3(C)[C@H](CC[C@@H]4[C@@]5(C)CCC(=O)C(C)(C)[C@@H]5CC[C@]43C)[C@@H]12`: in the experiment on A549, the IC50 is 5 µM.
Consider `C=C(C)[C@@H]1CC[C@]2(C(=O)O)CC[C@]3(C)[C@H](CC[C@@H]4[C@@]5(C)CC[C@H](C#CCN6CCCC6)C(C)(C)[C@@H]5CC[C@]43C)[C@@H]12`, for which the IC50 with MCF7 was determined as 5.5 µM.
Consider `C=C(C)[C@@H]1CC[C@]2(C(=O)OCc3cn(-c4cccc(O)c4)nn3)CC[C@]3(C)[C@H](CC[C@@H]4[C@@]5(C)CCC(=O)C(C)(C)[C@@H]5CC[C@]43C)[C@@H]12`, for which the concentration for half-maximal inhibition (IC50) in the experiment with A549 is 3.7 µM.
With `C=C(C)[C@@H]1CC[C@]2(C(=O)OCc3cn(-c4ccc(O)c(C)c4)nn3)CC[C@]3(C)[C@H](CC[C@@H]4[C@@]5(C)CCC(=O)C(C)(C)[C@@H]5CC[C@]43C)[C@@H]12`, in the experiment with HCT-116, the 50% inhibitory concentration (IC50) stood at 3.5 µM.
